The assay addresses T1, human FSH receptor (Homo sapiens, UniProt P23945).
T1 construct: expressed in transfected cells; host or cells: Chinese Hamster Ovary (CHO) cells
T1 sequence (P23945 18-695): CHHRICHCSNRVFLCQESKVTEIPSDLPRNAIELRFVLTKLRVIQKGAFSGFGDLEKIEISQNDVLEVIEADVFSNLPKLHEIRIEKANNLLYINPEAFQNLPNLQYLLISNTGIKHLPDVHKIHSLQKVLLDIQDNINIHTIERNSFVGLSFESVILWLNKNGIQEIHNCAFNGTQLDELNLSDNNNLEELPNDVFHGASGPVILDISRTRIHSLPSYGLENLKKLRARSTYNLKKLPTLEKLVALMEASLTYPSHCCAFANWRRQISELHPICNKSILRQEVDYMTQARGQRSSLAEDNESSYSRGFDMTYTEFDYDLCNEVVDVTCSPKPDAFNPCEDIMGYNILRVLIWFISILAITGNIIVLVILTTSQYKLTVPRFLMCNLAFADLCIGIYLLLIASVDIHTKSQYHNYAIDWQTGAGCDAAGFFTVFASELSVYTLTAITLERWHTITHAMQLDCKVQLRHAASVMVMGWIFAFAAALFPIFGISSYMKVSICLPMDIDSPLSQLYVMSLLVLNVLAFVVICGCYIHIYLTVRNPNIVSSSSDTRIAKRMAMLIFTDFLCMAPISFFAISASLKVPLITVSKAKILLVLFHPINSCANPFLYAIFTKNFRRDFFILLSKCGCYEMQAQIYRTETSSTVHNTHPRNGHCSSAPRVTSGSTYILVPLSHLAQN
Nature of the assay: CHO-FSH in vitro bioactivity (CRE/luciferase reporter gene). The assay is classed as cell-based. Conditions: CHO cells stably transfected with the human FSH receptor and CRE/firefly luciferase reporter; luminescence; read-out: EC50 (concentration of test compound causing half-maximal (50%) stimulation). The method, then:
CHO-FSH In Vitro Bioactivity
FSH activity of compounds were tested in Chinese Hamster Ovary (CHO) cells stably transfected with the human FSH receptor and cotransfected with a cAMP responsive element (CRE)/promotor directing the expression of a firefly luciferase reporter gene. Binding of ligand to the Gs-coupled FSH receptor will result in an increase of cAMP, which in turn will induce an increased transactivation of the luciferase reporter construct. The luciferase signal was quantified using a luminescence counter. For test compounds, EC50 values (concentration of test compound causing half-maximal (50%) stimulation) were calculated. For that purpose the software program GraphPad PRISM, version 3.0 (GraphPad software Inc., San Diego) was used.

Turning to `CCCC1CC(=O)C2=C(C1)NC(C)=C(C#N)C2c1cc(Br)c(OCc2cccc(C(=O)NCC(=O)OC)c2)c(OCC)c1` (centres unmarked) [Example 24, Glycine N-3-[2-bromo-4-(3-cyano-2-methyl-5-oxo-7-propyl-1,4,5,6,7,8-hexahydroquinolin-4-yl)-6-ethoxyphenoxymethyl]benzoyl methyl ester], the EC50 is less than 1 nM.

For `CCCC1CC(=O)C2=C(C1)NC(C)=C(C#N)C2c1cc(Br)c(OCc2ccc(C(=O)NCc3cccs3)cc2)c(OCC)c1` (centres unmarked) [Example 29, 4-[2-Bromo-4-(3-cyano-2-methyl-5-oxo-7-propyl-1,4,5,6,7,8-hexahydroquinolin-4-yl)-6-ethoxyphenoxymethyl]-N-thiophen-2-ylmethylbenzamide], the EC50 is less than 1 nM.
